Consider four substances from patent US20060105974A1, “Conjugates of photosensitizers and oligonucleotides for selective photochemiotherapy” (priority 2002, published 2006).

{Ce6} = chlorin e6 photosensitizer conjugate

For data set [1], the system named is GEO human colon cancer cells. Kind of data set: MTT cell viability assay after oligonucleotide incubation with or without irradiation. Type of data set: cell-based. Particulars: one day after incubation, no irradiation. On the procedure: To test the possibility of inhibiting cell growth by targeting the EGFR mRNA with Ω-sensitizers, mixed backbone oligonucleotides similar to those described in Example 1 were prepared, using methods described in Example 5. The sequences tested were:
GEO human colon cancer cells known to express approximately about 40000 functional EGFRs were purchased from ATCC (Rockville, Md., USA) and grown as described. Culture was performed in the presence of 10% fetal calf serum (FCS) and penicillin/streptomycin at 37° C. and 6% CO2 in a humid environment. For measurement purposes, the cells were subcultured in 48-well dishes (Costar 3548, Integra Biosiences, Cambridge, Mass., USA) to give 10^5 cells/well 72 hours prior to incubation with the oligonucleotides. […]
The cell viability was tested by means of an MTT assay. This technique allows quantification of cell survival after cytotoxic insult by testing the enzymatic acitivity of the mitochondria. […] The optical density of the product was quantified by its absorption at 540 nm using a 96-well ELISA plate reader (iEMS Reader MF, Labsystems, USA). […] The absorption of each residue was determined at 540 nm using the plate reader. The absorbance readings from treated cells was divided by the absorbance readings from the control cells in order to calculate the fraction of surviving cells.
For orientation: Tetrazolium dyes change colour on reduction, which living cells bring about.

The test system of data set [2] is target sequence (mam gene sequence). Kind of data set: Ω-sensitizer-induced photo-oxidation of DHR123 as a function of target concentration. In kind it is biochemical. To be noted: 10 J/cm^2. The source says:
In order to test the possibility of using nano particles as the quenching moiety, oligonucleotides labeled with a photosensitive moiety at the 3′ terminus, where labeled at the 5′ terminus with amino modified gold nanoparticles. The mam gene sequence S′-CGGATGAAACTCTGAGCAATGTCTGCAGTTCTGTGAGCCAAAG-3′ (GeneBank accession No. AF015224) was coupled to the complementary stem sequences CCA AGC and GCT TGG at its 5′ and 3′ termini, respectively. The sequence was constructed using fully automated DNA synthesis as described in Example 1. The 3′ end contained an amino group, while the 5′ end was equipped with a six carbon spacer thiol group protected by a trityl moiety (Glen Research, Sterling, Va.) using standard methods. Following cleavage with 28% ammonium hydroxide, oligonucleotides were washed and purified as described above. The 3′ end photosensitive moiety labeled oligonucleotide was prepared and purified using the NHS ester of pheophorbide a as described in Example 1. Then the trityl protection group was removed by adding 0.15M silver nitrate solution to the labeled oligonucleotide for 1 hour. To this mixture 0.15M dithiothreitol (DTT) was added for 10 minutes. After spinning at 10000 rpm the supernatant was transferred to another tube. 400 pmol of this oligonucleotide were then suspended in 180 μl of water and immediately reacted with 6 nmol of monomaleimido gold particles (Ø=1.4 nm) (Nanoprobes) in aqueous 20 mM NaH2PO4, 150 mM NaCl, 1 mM ethylenediamine […] (EDTA) Buffer, pH 6.4, containing 10% isopropanol at 4° C. for 24 hours.
To the solution containing the Ω-sensitizer, 5′ (gold particle)-S—(CH2)6— CCAAGCCGGATGAAACTCTGAGCAATGTCTGCAGTTCTGTGAGCCAAAGCTTGG-(pheophorbide a)-3′, target and one base pair mismatch oligonucleotides were added at different concentrations. After adding appropriate quantities of DHR123 (see Example 1), the solutions were irradiated at 405 nm with electromagnetic radiation doses of 10 J/cm^2 and the fluorescence of rhodamine 123 was measured as described above as a function of the target concentration.

In a further data set the test system is sense oligonucleotides. The data set is described as follows: Photo-oxidation of DHR123 to RH123 by Ω-sensitizers with sense and mismatch oligonucleotides. In kind it is biochemical. To be noted: irradiation 405±5 nm; for photochemically induced oxidation of DHR123: in the presence of the sense oligonucleotide; for reduction of oxidation capacity (photo-oxidation of DHR123), one base pair mismatch versus sense oligonucleotide / reduction of oxidation capacity (photo-oxidation of DHR123), two base pair mismatches versus sense oligonucleotide: RH123 fluorescence at 529 nm; for reduction of oxidation capacity (photo-oxidation of DHR123), two base pair mismatches versus sense oligonucleotide: two base pair mismatch sense oligonucleotide. On the procedure:
(§1) The selective photosensitizing action of the different Ω-sensitizers described in Example 1 was tested in vitro against sense oligonucleotides, and sense oligonucleotides having one and two base mismatches, respectively. For this purpose oligonucleotides with sequences 5′-CAAAGGGAGGAAACCTAGCA-3′ (sense), 5′-CAAAGGGAGGTAACCTAGCA-3′ (sense 1 bp mismatch), and 5′-CAAAGGGAAGTAACCTAGCA-3′ (sense 2 bp mismatch) were synthesized using standard automated phosphoramidite chemistry. Oligonucleotides were dissolved in 2 ml of a solution containing 10 mM Tris-HCl and 2 mM MgCl2 to give a final concentration of 0.8 μM in a quartz cuvette. To this solution 1 ml Dihydrorhodamine 123 (DHR123) (Molecular Probes, Eugene, USA) (40 μM) dissolved in 10 mM Tris-HCl was added. DHR123 is a non-fluorescent molecule that in the presence of oxygenating species undergoes oxygenation to give the fluorescent dye rhodamine 123 having an absorption maximum at 507 nm and a fluorescence maximum at 529 nm. 1 ml of Ω-sensitizer (800 nM) containing solution was added and the final solution was stored in the dark at 37° C. for 20 minutes. Then the solution was irradiated at 405±5 nm with electromagnetic radiation from a filtered Hg-Arc lamp. The RH123 fluorescence intensity at 529 nm was measured every 60 seconds using a Perkin Elmer spectrofluorometer (Model LS50B, Perkin Elmer, Rotkreuz, CH)

The next data set concerns sense oligonucleotide. Kind of data set: Intrinsic fluorescence emission of the Ω-sensitizer after excitation at 405 nm with sense and mismatch oligonucleotides. In kind it is binding. Particulars: excitation 405 nm; two base pair mismatch oligonucleotide versus sense oligonucleotide. On the procedure:
as §1, with “1 ml of Ω-sensitizer (800 nM) containing solution was added and the final solution was stored in the dark at 37° C. for 20 minutes. Then the solution was irradiated at 405±5 nm with electromagnetic radiation from a filtered Hg-Arc lamp.” left out
Furthermore, the intrinsic fluorescence of the pheophorbide a labeled Ω-sensitizer was used to further underline the selectivity of these new photochemotherapeutic agents.

For “5′ (chlorin e6) -GC*G A*CT GA*C TGC CA*A C*TA TG*A* ACA T*C*G C-(chlorin e6)3′ [b)]”, the “cell viability (mitochondrial activity, MTT) in the dark” value in data set [1] is reported as “only slightly reduced”.

As to “5′ (gold particle)-S—(CH2)6— CCAAGCCGGATGAAACTCTGAGCAATGTCTGCAGTTCTGTGAGCCAAAGCTTGG-(pheophorbide a)-3′ (CCAAGCCGGATGAAACTCTGAGCAATGTCTGCAGTTCTGTGAGCCAAAGCTTGG; hairpin, 5' gold particle via hexyl thiol, 3' pheophorbide a, partial phosphorothioate, further chemistry not given here)”, the “concentrations of the one base pair mismatched oligonucleotide at which photodynamic action can be observed” value in data set [2] (405 nm) is on record as “only very high concentrations”. For the same substance, the “concentration of the target sequence at which the RH123 fluorescence intensity reaches its maximum” value in data set [2] (irradiated at 405 nm, RH123 fluorescence at 529 nm) is reported as “about 0.5 μM”. The “RH123 fluorescence with oligonucleotide not complementary to the TCS” value in data set [2] (one base pair mismatched oligonucleotide at about 0.5 μM, 405 nm) is on record as “no fluorescence is detectable”.

As to “5′-(chlorin)-GCGATGCTAGGTTTCCTCCCTTTGTCGC-(chlorin)-3′ (GCGATGCTAGGTTTCCTCCCTTTGTCGC; DNA, linkages osossooooossooooooooossssso (s phosphorothioate, o phosphodiester), 5' {Ce6}, 3' {Ce6}, methylation of C not given here) [chlorin e6 labeled Ω-sensitizer]”, in the data set with sense oligonucleotides, the “photochemically induced oxidation of DHR123” value is listed as “most efficient”; the “reduction of oxidation capacity (photo-oxidation of DHR123), one base pair mismatch versus sense oligonucleotide” value is recorded as “about 5 fold”; the “reduction of oxidation capacity (photo-oxidation of DHR123), two base pair mismatches versus sense oligonucleotide” value is reported as about 20 fold.

For “5′-(pheo a)-GCGATGCTAGGTTTCCTCCCTTTGTCGC-(pheo a)-3′ (GCGATGCTAGGTTTCCTCCCTTTGTCGC; pheophorbide a at both ends, partial phosphorothioate, pattern not given here) [pheophorbide a labeled Ω-sensitizer]”, in the data set with sense oligonucleotides, the “photochemically induced oxidation of DHR123” value is “most efficient”; the “reduction of oxidation capacity (photo-oxidation of DHR123), one base pair mismatch versus sense oligonucleotide” value is recorded as “about 5 fold”; the “reduction of oxidation capacity (photo-oxidation of DHR123), two base pair mismatches versus sense oligonucleotide” value is about 20 fold. The “RH123 fluorescence intensities achieved, compared with the chlorin e6 labeled Ω-sensitizer” value in the data set on sense oligonucleotides (fluorescence at 529 nm) is “higher fluorescence intensities”. Also, the “fluorescence of the photosensitiser pheophorbide a (intrinsic fluorescence of the Ω-sensitizer)” value with sense oligonucleotide is listed as “significant reduction”.
